# Source: ChEMBL document CHEMBL3390836, “Mannich- and LedererManasse-based analogues of the natural product S-(+)-curcuphenol as cancer proliferation and migration inhibitors” (Medchemcomm, 2012)
# Key:
# [1] = tested on: RPMI-8226; assay: Cytotoxicity against human RPMI8226 cells assessed as cell growth at 10^-6 M after 48 hrs by SRB assay relative to control; assay type: functional; details: RPMI-8226, 48 h, read-out: Activity
# [2] = tested on: RPMI-8226; assay: Cytotoxicity against human RPMI8226 cells after 48 hrs by SRB assay; assay type: functional; details: RPMI-8226, 48 h; for CC50: read-out: LC50 (the source's name)
# [3] = tested on: CCRF-CEM; assay: Cytotoxicity against human CCRF-CEM cells assessed as cell growth at 10^-8 M after 48 hrs by SRB assay relative to control; assay type: functional; details: read-out: Activity
# [4] = tested on: RPMI-8226; assay: Cytotoxicity against human RPMI8226 cells assessed as cell growth at 10^-8 M after 48 hrs by SRB assay relative to control; assay type: functional; details: RPMI-8226, 48 h, read-out: Activity
# [5] = tested on: CCRF-CEM; assay: Cytotoxicity against human CCRF-CEM cells assessed as cell growth at 10^-7 M after 48 hrs by SRB assay relative to control; assay type: functional; details: read-out: Activity
# [6] = tested on: M14; assay: Cytotoxicity against human M14 cells after 48 hrs by SRB assay; assay type: functional; details: M14, 48 h; for CC50: read-out: LC50 (the source's name)
# [7] = Cytotoxicity against human UACC257 cells assessed as cell growth at 10^-4 M after 48 hrs by SRB assay relative to control; assay type: functional; details: UACC-257, 48 h, read-out: Activity
# [8] = tested on: CCRF-CEM; assay: Cytotoxicity against human CCRF-CEM cells after 48 hrs by SRB assay; assay type: functional; details: read-out: LC50 (the source's name)
# [9] = tested on: CCRF-CEM; assay: Cytotoxicity against human CCRF-CEM cells assessed as cell growth at 10^-4 M after 48 hrs by SRB assay relative to control; assay type: functional; details: read-out: Activity
# [10] = tested on: M14; assay: Cytotoxicity against human M14 cells assessed as cell growth at 10^-7 M after 48 hrs by SRB assay relative to control; assay type: functional; details: M14, 48 h, read-out: Activity
# [11] = Cytotoxicity against human UACC257 cells assessed as cell growth at 10^-6 M after 48 hrs by SRB assay relative to control; assay type: functional; details: UACC-257, 48 h, read-out: Activity
# [12] = Cytotoxicity against human UACC257 cells assessed as cell growth at 10^-8 M after 48 hrs by SRB assay relative to control; assay type: functional; details: UACC-257, 48 h, read-out: Activity
# [13] = tested on: CCRF-CEM; assay: Cytotoxicity against human CCRF-CEM cells assessed as cell growth at 10^-6 M after 48 hrs by SRB assay relative to control; assay type: functional; details: read-out: Activity
# [14] = tested on: M14; assay: Cytotoxicity against human M14 cells assessed as cell growth at 10^-6 M after 48 hrs by SRB assay relative to control; assay type: functional; details: M14, 48 h, read-out: Activity
# [15] = Cytotoxicity against human UACC257 cells after 48 hrs by SRB assay; assay type: functional; details: UACC-257, 48 h
# [16] = tested on: NCI-H522; assay: Cytotoxicity against human NCI-H522 cells after 48 hrs by SRB assay; assay type: functional; details: NCI-H522, 48 h; for CC50: read-out: LC50 (the source's name)
# [17] = tested on: DU-145; assay: Cytotoxicity against human DU145 cells assessed as cell growth at 10^-6 M after 48 hrs by SRB assay relative to control; assay type: functional; details: DU-145, 48 h, read-out: Activity
# [18] = tested on: BT-549; assay: Cytotoxicity against human BT549 cells assessed as cell growth at 10^-6 M after 48 hrs by SRB assay relative to control; assay type: functional; details: BT-549, 48 h, read-out: Activity
# [19] = tested on: SR; assay: Cytotoxicity against human SR cells assessed as cell growth at 10^-7 M after 48 hrs by SRB assay relative to control; assay type: functional; details: read-out: Activity
# [20] = tested on: DU-145; assay: Cytotoxicity against human DU145 cells assessed as cell growth at 10^-8 M after 48 hrs by SRB assay relative to control; assay type: functional; details: DU-145, 48 h, read-out: Activity
# [21] = tested on: SR; assay: Cytotoxicity against human SR cells assessed as cell growth at 10^-6 M after 48 hrs by SRB assay relative to control; assay type: functional; details: read-out: Activity
# [22] = tested on: DU-145; assay: Cytotoxicity against human DU145 cells after 48 hrs by SRB assay; assay type: functional; details: DU-145, 48 h
# [23] = tested on: MOLT-4; assay: Cytotoxicity against human MOLT4 cells assessed as cell growth at 10^-4 M after 48 hrs by SRB assay relative to control; assay type: functional; details: MOLT-4, 48 h, read-out: Activity
# [24] = tested on: BT-549; assay: Cytotoxicity against human BT549 cells assessed as cell growth at 10^-8 M after 48 hrs by SRB assay relative to control; assay type: functional; details: BT-549, 48 h, read-out: Activity
# [25] = tested on: SR; assay: Cytotoxicity against human SR cells assessed as cell growth at 10^-8 M after 48 hrs by SRB assay relative to control; assay type: functional; details: read-out: Activity
# [26] = Cytotoxicity against human Hs 578T cells assessed as cell growth at 10^-7 M after 48 hrs by SRB assay relative to control; assay type: functional; details: read-out: Activity
# [27] = tested on: NCI-H522; assay: Cytotoxicity against human NCI-H522 cells assessed as cell growth at 10^-6 M after 48 hrs by SRB assay relative to control; assay type: functional; details: NCI-H522, 48 h, read-out: Activity
# [28] = tested on: K562; assay: Cytotoxicity against human K562 cells assessed as cell growth at 10^-4 M after 48 hrs by SRB assay relative to control; assay type: functional; details: K562, 48 h, read-out: Activity
# [29] = tested on: SR; assay: Cytotoxicity against human SR cells assessed as cell growth at 10^-4 M after 48 hrs by SRB assay relative to control; assay type: functional; details: read-out: Activity
# [30] = tested on: BT-549; assay: Cytotoxicity against human BT549 cells assessed as cell growth at 10^-4 M after 48 hrs by SRB assay relative to control; assay type: functional; details: BT-549, 48 h, read-out: Activity
# [31] = tested on: NCI-H522; assay: Cytotoxicity against human NCI-H522 cells assessed as cell growth at 10^-7 M after 48 hrs by SRB assay relative to control; assay type: functional; details: NCI-H522, 48 h, read-out: Activity
# [32] = tested on: NCI-H522; assay: Cytotoxicity against human NCI-H522 cells assessed as cell growth at 10^-4 M after 48 hrs by SRB assay relative to control; assay type: functional; details: NCI-H522, 48 h, read-out: Activity
# [33] = tested on: BT-549; assay: Cytotoxicity against human BT549 cells after 48 hrs by SRB assay; assay type: functional; details: BT-549, 48 h; for CC50: read-out: LC50 (the source's name)
# [34] = Cytotoxicity against human PC3 cells assessed as cell growth at 10^-7 M after 48 hrs by SRB assay relative to control; assay type: functional; details: PC-3, 48 h, read-out: Activity
# [35] = target: Proto-oncogene tyrosine-protein kinase Src (Homo sapiens, UniProt P12931); assay: Inhibition of Src (unknown origin)
# Proto-oncogene tyrosine-protein kinase Src, sequence (P12931 2-536 limits assumed): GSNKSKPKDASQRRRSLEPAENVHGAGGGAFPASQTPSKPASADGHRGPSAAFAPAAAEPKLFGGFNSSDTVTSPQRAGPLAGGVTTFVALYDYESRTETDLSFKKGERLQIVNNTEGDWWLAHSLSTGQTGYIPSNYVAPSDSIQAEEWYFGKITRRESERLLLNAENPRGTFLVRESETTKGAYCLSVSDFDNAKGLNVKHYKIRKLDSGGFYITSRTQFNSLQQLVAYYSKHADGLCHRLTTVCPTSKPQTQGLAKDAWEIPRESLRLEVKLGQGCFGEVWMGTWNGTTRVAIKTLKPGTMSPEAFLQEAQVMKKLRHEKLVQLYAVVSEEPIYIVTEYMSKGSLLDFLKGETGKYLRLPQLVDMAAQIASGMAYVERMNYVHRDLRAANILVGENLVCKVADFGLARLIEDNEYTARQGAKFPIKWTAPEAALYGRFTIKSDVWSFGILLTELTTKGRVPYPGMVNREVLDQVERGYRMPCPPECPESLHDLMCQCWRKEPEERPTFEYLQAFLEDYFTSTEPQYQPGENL
smiles,measurement,setting,value
COc1ccc(CCN2COc3c([C@@H](C)CCC=C(C)C)ccc(C)c3C2)cc1OC,growth at 1 µM,[1],78%
same,GI50,[2],2.09 µM
same,TGI,[2],7.67 µM
same,CC50,[2],> 100 µM
same,growth at 0.01 µM,[3],96%
same,growth at 0.01 µM,[4],93%
same,growth at 0.1 µM,[5],98%
same,GI50,[6],1.69 µM
same,TGI,[6],3.18 µM
same,CC50,[6],5.97 µM
same,growth at 100 µM,[7],-84%
same,CC50,[8],> 100 µM
same,growth at 100 µM,[9],-29%
same,growth at 0.1 µM,[10],97%
same,growth at 1 µM,[11],91%
same,growth at 0.01 µM,[12],80%
same,growth at 1 µM,[13],93%
same,growth at 1 µM,[14],92%
same,GI50,[15],0.0283 µM
same,TGI,[15],10.9 µM
same,CC50,[15]; read-out: LC50 (the source's name),40.8 µM
CC(C)=CCC[C@H](C)c1ccc(C)c(CNCC2CCNCC2)c1O,GI50,[16],8.22 µM
same,TGI,[16],> 25 µM
same,CC50,[16],> 25 µM
same,growth at 1 µM,[17],100%
same,growth at 1 µM,[18],81%
same,growth at 0.1 µM,[19],84%
same,growth at 0.01 µM,[20],100%
same,growth at 1 µM,[21],87%
same,GI50,[22],16.4 µM
same,LC50,[22],> 25 µM
same,TGI,[22],> 25 µM
same,growth at 100 µM,[23],-22%
same,growth at 0.01 µM,[24],98%
same,growth at 0.01 µM,[25],83%
same,growth at 0.1 µM,[26],91%
same,growth at 1 µM,[27],104%
same,growth at 100 µM,[28],-58%
same,growth at 100 µM,[7],-8.3%
same,CC50,[8],1.64 µM
same,growth at 100 µM,[29],-50%
same,growth at 100 µM,[30],22%
same,growth at 0.1 µM,[31],96%
same,growth at 1 µM,[11],80%
same,growth at 0.01 µM,[12],93%
same,growth at 100 µM,[32],9%
same,GI50,[33],9.72 µM
same,TGI,[33],> 25 µM
same,CC50,[33],> 25 µM
same,growth at 0.1 µM,[34],99%
CC(C)=CCC[C@H](C)c1ccc(C)cc1O,IC50,[35],35.8 µM
CC(C)=CCC[C@H](C)c1ccc(C)c2c1OCN(CC1CCNCC1)C2,growth at 1 µM,[1],110%
same,GI50,[2],7.25 µM
same,TGI,[2],32.6 µM
same,CC50,[2],> 100 µM
same,GI50,[16],13.5 µM
same,TGI,[16],28.6 µM
same,CC50,[16],60.4 µM
same,growth at 1 µM,[17],102%
same,growth at 1 µM,[18],104%
same,growth at 0.1 µM,[19],98%
same,growth at 0.01 µM,[20],104%
same,growth at 1 µM,[21],91%
same,growth at 0.01 µM,[4],99%
same,GI50,[22],16.4 µM
same,LC50,[22],63.2 µM
same,TGI,[22],32.2 µM
same,GI50,[6],10.2 µM
same,TGI,[6],24.5 µM
same,CC50,[6],58.9 µM
same,growth at 100 µM,[23],-39%
same,growth at 0.01 µM,[24],94%
same,growth at 0.01 µM,[25],95%
same,growth at 0.1 µM,[26],102%
same,growth at 1 µM,[27],97%
same,growth at 100 µM,[28],-50%
same,growth at 100 µM,[29],-42%
same,growth at 100 µM,[30],-49%
same,growth at 0.1 µM,[31],88%
same,growth at 0.1 µM,[10],99%
same,growth at 100 µM,[32],-84%
same,GI50,[33],16.9 µM
same,TGI,[33],41.6 µM
same,CC50,[33],> 100 µM
same,growth at 0.1 µM,[34],100%
same,growth at 1 µM,[14],114%
